Source: patent US5880256A, “Factor VIIa inhibitors from Kunitz domain proteins” (Genentech, Inc., priority 1995, dated 1999)
Positions of bridges follow the written chain, without caps; N, C: chain ends. No end group written: not given here.

Columns and labels:
[1] = test system: New Zealand white rabbits; assay: Rabbit deep medial injury model (carotid artery patency, thrombus weight); assay type: in vivo
Method: (§1) Male New Zealand white rabbits (~4 kg) were anesthetized to surgical anesthesia plane with an IM injection of Ketamine / Xylaxine. The rabbits were placed supine on a restraining board, warmed to 37° C., and the neck and inner thigh area shaved. Teflon catheters were replaced in a marginal ear vein and femoral artery for drug delivery and sample collection respectively. Prior to treatment, blood samples were collected for coagulation tests (APTT and PT). Bleeding time was assessed from a cut made in the cuticle portion of a hind limb nail. Incisions were made in the neck region and the entire left common carotid artery and its branches were surgically isolated. An ultrasonic flow probe (Transonics®) was placed on the common carotid approximately 5 cm caudal to the common--internal bifurcation. After blood flow reached a stable baseline, drugs (saline or test compounds) were delivered via the marginal ear vein. A deflated embolectomy catheter (Fogarty®, 3F) was then introduced into the lumen of the common via an incision in the lingual branch. Blood flow through the artery was stopped briefly while the catheter was introduced and loosely secured with 2-0 silk tie at the incision site. After the catheter was in place and secure, blood flow was restored. The deflated balloon was advanced to within 2 mm of the flow probe and inflated with saline until resistance of the vessel wall was felt. The catheter was pulled back with a steady motion to the first branch and then deflated. This procedure was repeated a total of six times for each experimental animal, after which the catheter was removed. […] Over 40 minutes, blood samples were taken for APTT and PT measurements, cuticle bleeding times were assessed and blood flow through the carotid monitored. Duration of patency was defined as the total amount of time (maximum=40 minutes) that any measurable blood flow is detected in the artery. Patency rate refers to the percentage of animals tested who had carotid artery blood flow≥5 minutes. At the end of the experiment the rabbit was euthanized and the carotid artery removed and opened. If any thrombus was present, it was removed, blotted and the weight recorded.
[Heparin was dosed as a 25 u/kg bolus followed by a continuous infusion of 1) 0.5 u/kg/min or 2) 1 u/kg/min. Other reagents were given as a 2 mg/kg IV bolus. With the exception of the patency data, values are expressed as means ±sem.]

[2] = test system: New Zealand white rabbits; assay: Cuticle bleeding time in the rabbit model; assay type: in vivo; conditions: for bleeding compared to the saline control (in words): after 10 minutes
Method: as §1, with “At the end of the experiment the rabbit was euthanized and the carotid artery removed and opened.” left out, “recorded. […]” for “recorded.”

normal human plasma = assay: Activated partial thromboplastin time (APTT) assay, initiated by ellagic acid; assay type: biochemical
Method: For the activated partial thromboplastin time (APTT) assays, the activation time was set at 120 sec and acquisition time at 300 to 600 sec depending on the expected outcome of the assay. Citrated normal human plasma and inhibitor were incubated together. The sample (plasma and inhibitor) and activator (Instrumentation Laboratories Ellagic acid/Phospholipid mix Test Reagent) were automatically pipetted and incubated together for 2 min at 37° C., then CaCl2 was added and clotting time determined by means of optical assessment. The total incubation time of inhibitor with plasma was ca. 3 min before addition of activator, and 5 min before addition of CaCl2.

Heparin
patency and clot size compared to the saline control (in words) ([1]; rabbit deep medial injury model): significantly prolonged patency and reduced clot size | Patency (%) ([1]; rabbit, Heparin 1: 25 u/kg bolus then 0.5 u/kg/min infusion): 67% | Patency Duration ([1]; rabbit, Heparin 1: 25 u/kg bolus then 0.5 u/kg/min infusion, mean ± sem): 23.3 ± 6.7 min | Patency (%) ([1]; rabbit, Heparin 2: 25 u/kg bolus then 1 u/kg/min infusion): 100% | Patency Duration ([1]; rabbit, Heparin 2: 25 u/kg bolus then 1 u/kg/min infusion, mean ± sem): 35.2 ± 2.2 min

VREVCSEQAEPGPCRAMMKRWYFDVTEGKCAPFIYGGCYGNRNNFDTEEYCAAVCGSA (disulfide 5-55, 14-38, 30-51) [IV-49C]
bleeding compared to the saline control (in words) [2]: did not induce prolonged bleeding

CC[C@H](C)[C@@H]1NC(=O)[C@H](CC(C)C)NC(=O)[C@H](C)NC(=O)[C@H](CCCNC(=N)N)NC(=O)[C@@H]2CSSC[C@@H]3NC(=O)CNC(=O)CNC(=O)[C@H](Cc4ccc(O)cc4)NC(=O)[C@H](Cc4ccccc4)NC(=O)[C@H](Cc4ccccc4)NC(=O)[C@@H]4CCCN4C(=O)[C@H](C)NC(=O)[C@H](CSSC[C@H](NC(=O)[C@H](Cc4ccc(O)cc4)NC(=O)[C@H](CCC(=O)O)NC(=O)[C@H](CCC(=O)O)NC(=O)[C@H]([C@@H](C)O)NC(=O)[C@H](CC(=O)O)NC(=O)[C@H](Cc4ccccc4)NC(=O)[C@H](CC(N)=O)NC(=O)[C@H](CC(N)=O)NC(=O)[C@H](CCCNC(=N)N)NC(=O)[C@H](CC(N)=O)NC(=O)CNC(=O)[C@H](Cc4ccc(O)cc4)NC3=O)C(=O)N[C@@H](C)C(=O)N[C@@H](C)C(=O)N[C@@H](C(C)C)C(=O)N[C@H](C(=O)NCC(=O)N[C@@H](CO)C(=O)N[C@@H](C)C(=O)O)CSSC[C@H](NC(=O)[C@@H](NC(=O)[C@H](CCC(=O)O)NC(=O)[C@H](CCCNC(=N)N)NC(=O)[C@@H](N)C(C)C)C(C)C)C(=O)N[C@@H](CO)C(=O)N[C@@H](CCC(=O)O)C(=O)N[C@@H](CCC(N)=O)C(=O)N[C@@H](C)C(=O)N[C@@H](CCC(=O)O)C(=O)N3CCC[C@H]3C(=O)NCC(=O)N3CCC[C@H]3C(=O)N2)NC(=O)[C@H](CCCCN)NC(=O)CNC(=O)[C@H](CCC(=O)O)NC(=O)[C@H]([C@@H](C)O)NC(=O)[C@H](C(C)C)NC(=O)[C@H](CC(=O)O)NC(=O)[C@H](Cc2ccccc2)NC(=O)[C@H](Cc2ccc(O)cc2)NC(=O)[C@H](Cc2c[nH]c3ccccc23)NC(=O)[C@H](CCCNC(=N)N)NC(=O)[C@H](CC(C)C)NC1=O [TF7I-C]
bleeding compared to the saline control (in words) [2]: did not induce prolonged bleeding

APPI: Alzheimer's amyloid β-protein precursor inhibitor, 58 residue Kunitz domain, wild type (SEQ ID NO: 34) (VREVCSEQAETGPCRAMISRWYFDVTEGKCAPFFYGGCGGNRNNFDTEEYCMAVCGSA)
APTT clotting time, fold prolongation (normal human plasma; 40 μM inhibitor, uninhibited clotting time 31 s): 3.6 fold | APTT clotting time, fold prolongation (normal human plasma; ca. 7 μM inhibitor): ca. 3 fold | Patency (%) ([1]; rabbit, 2 mg/kg IV bolus, animals with carotid blood flow ≥5 minutes): 40% | Patency Duration ([1]; rabbit, 2 mg/kg IV bolus, maximum 40 minutes, mean ± sem): 13.4 ± 8.5 min | Clot (mgs) ([1]; rabbit, 2 mg/kg IV bolus, thrombus weight, mean ± sem): 49.5 ± 18.2 mgs | Cuticle bleeding time, fold increase over pre dose ([2]; in vivo, iv, 2 mg/kg): 2.2 ± 0.6 fold
